Patent publication US20060160883A1, “Regulation of immune system action in mammals through use of a multi-tiered model of immune system function” (priority 2005, published 2006)

System: osteosarcoma (bone cancer) and chondrosarcoma (cartilage cancer)
Test: Treatment of one dog (Maggie, 12 year old Border Collie) with bone and cartilage cancer after leg amputation
Assay type: in vivo
From the text: The mammal involved is Maggie, a 12 year old, neutered female Border Collie. • 1) The IDO-producing diseases or conditions in this case are osteosarcoma (bone cancer) and chondrosarcoma (cartilage cancer). • 2) There are three parts to treatment in this model. There must be a choice or choices from Treatment Part A. There may be choice(s) from Treatment Part B and/or Part C. • A) The goal of Treatment Part A is to “turn off” IDO and/or its actions. The choice I used in this case was an antioxidant to compete with IDO for O2. • The antioxidant I used was ascorbic acid in the form of Ester-C, a licensed trademark of Zila Neutraceuticals, Inc. It is manufactured under U.S. Pat. Nos. 4,822,816 and 5,070,085. It was purchased at Sam's Club and the bottle contained 500 500 mg caplets with Rose Hips.
The doseage was bowel tolerance level which in this case was 3-4½ grams per day. • B) The goal of Treatment Part B is to build up the immune system. […] This is not, however, seen as a cure for either type of cancer she had. • Another choice was pain medication. • Yet another choice was antibiotics after the surgery to prevent infection while she healed. • My other treatment of choice was Vitamin D3. I purchased KAL brand D-400. (This stands for 400 IUs of Vitamin D3). I purchased them at several health food stores. There were 100 softgels per bottle and each softgel contained 400 IUs of D3 as well as 600 IUs of Vitamin A. They were manufactured by Nutraceutical Corp. for Makers of KAL, Inc. • Maggie's dosage most of the time was 6 softgels (2400 IUs) per day. For one week in November, she had no Vitamin D3, then after that, 10 (4000 IUs) per day for a short time, then 8 (3200 IUs) per day. • The total cost per month for Ester-C and D-400 was approximately $25.
Also, on July 12, she started taking Vitamin D3. (She started with 2 per day, and by July 14th, was taking 6 per day. She took 3 in the morning and 3 at night from then until October 30.) The hope was that the D3 could buy some time.
August 25, in addition to Vitamin D3, Maggie started taking Vitamin C (Ester-C caplets). That evening, she was given 3 caplets (one and one half grams).
The morning of August 26, she was given 4 caplets (2 grams). The goal was to find her bowel tolerance level.
Treatment resumed, this time with 9 softgels of Vitamin D3 per day and 9 caplets of Ester-C per day. That afternoon, […] developed a fever that lasted until afternoon of the next day.
A week later, she was taking 7 Ester-C and 10 D3 per day, but the D3 was dropped to 8 per day by November 21.

Row | SMILES | alkaline phosphatase level (blood test) (August 15, Vitamin D3 6 softgels (2400 IUs) per day since July 12 after amputation, level before treatment 3175, normal range 5-131) | lung X-rays (August 15, on Vitamin D3 after amputation) | signs of Vitamin D3 overdose (blood test) (November 3, after 6 softgels (2400 IUs) per day July 14 to October 30) | calcium deposits in organs on x-ray (a symptom of D3 overdose) (November 5) | overall effect of the treatment on the cancer (autopsy findings) (Ester-C plus Vitamin D3 after amputation, only microscopic cells and clusters in liver, bone tumor area being replaced) | alkaline phosphatase level (blood test) (November 3, Ester-C at bowel tolerance since August 25 in addition to Vitamin D3 (D3 stopped October 30), before treatment 3175) | alkaline phosphatase level (blood test) (November 5, Vet Emergency Hospital (different lab), Ester-C plus Vitamin D3 treatment) | lung and lower abdominal x-rays, sign of cancer (November 5, Ester-C plus Vitamin D3 treatment) | autopsy, cancer in lungs (after death December 18, Ester-C plus Vitamin D3 treatment) | alertness, behaviour (evening of August 26, one day after start of Ester-C (3 then 4 caplets) in addition to Vitamin D3)
1 | C=C1CC[C@H](O)C/C1=C/C=C1\CCC[C@]2(C)[C@@H]([C@H](C)CCCC(C)C)CC[C@@H]12 [Vitamin D3] | 3113 | no lung cancer tumors | no signs of Vitamin D3 overdose | no calcium deposits in any organs |  |  |  |  |  | 
2 | O=C1O[C@H]([C@@H](O)CO)C(O)=C1O [Vitamin C, ascorbic acid] |  |  |  |  | seemed to be working on the cancer | 2230 | 1669 | no sign of cancer | no cancer in her lungs | alert and awake
